Experimental data: publication PMC8921294, “Inhibition of mitochondrial LonP1 protease by allosteric blockade of ATP binding and hydrolysis via CDDO and its derivatives” (The Journal of Biological Chemistry, 2022)

Molecular target: T1, LonP1 C576S (Homo sapiens, UniProt P36776, C576S)
T1 construct: hexa-histidine (N); made in house; host or cells: Rosetta 2 E. coli
T1 sequence (P36776 68-959 C576S): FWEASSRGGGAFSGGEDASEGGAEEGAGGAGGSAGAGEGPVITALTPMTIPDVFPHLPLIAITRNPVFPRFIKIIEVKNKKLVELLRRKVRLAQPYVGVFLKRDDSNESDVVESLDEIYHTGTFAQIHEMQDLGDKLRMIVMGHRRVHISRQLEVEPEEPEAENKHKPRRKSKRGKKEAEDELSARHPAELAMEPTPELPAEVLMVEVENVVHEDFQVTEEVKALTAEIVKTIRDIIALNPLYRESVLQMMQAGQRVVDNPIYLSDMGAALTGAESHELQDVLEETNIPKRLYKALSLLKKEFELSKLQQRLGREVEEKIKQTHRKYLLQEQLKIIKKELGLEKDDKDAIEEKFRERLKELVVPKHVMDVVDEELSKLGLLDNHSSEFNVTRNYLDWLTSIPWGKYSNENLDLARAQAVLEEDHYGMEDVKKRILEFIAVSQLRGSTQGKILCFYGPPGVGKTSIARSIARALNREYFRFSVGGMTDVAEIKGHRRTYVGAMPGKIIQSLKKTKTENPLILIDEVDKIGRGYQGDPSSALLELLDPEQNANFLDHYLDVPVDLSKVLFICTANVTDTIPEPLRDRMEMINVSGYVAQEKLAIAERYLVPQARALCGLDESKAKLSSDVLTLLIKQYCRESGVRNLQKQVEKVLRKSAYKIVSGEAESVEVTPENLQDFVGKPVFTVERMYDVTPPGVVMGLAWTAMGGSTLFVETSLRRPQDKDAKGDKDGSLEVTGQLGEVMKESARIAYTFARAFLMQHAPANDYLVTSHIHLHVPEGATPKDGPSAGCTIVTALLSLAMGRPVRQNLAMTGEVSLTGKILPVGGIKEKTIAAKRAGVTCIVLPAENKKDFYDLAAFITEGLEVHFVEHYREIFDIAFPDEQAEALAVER
Assay: Endpoint ATPase assay, LonP1 C576S
Type: biochemical
Experimental: Human mitochondrial LonP1 and mutants lacking the predicted mitochondrial targeting sequence were fused to an N-terminal hexa-histidine affinity tag, expressed in Rosetta 2 E. Coli, and purified using a nickel agarose column as previously described ([72]) and protein concentration and buffer exchange carried out using Amicon Ultra centrifugal filtration. LonP1 mutant constructs were obtained from the PCR-based QuikChange Site-Directed Mutagenesis Kit.
ADP-Glo (Promega) assays were performed according to the manufacturer's protocols. Purified wild-type or mutant LonP1 (400 nM monomer), the 26S proteasome (3 nM), or no enzyme controls were preincubated in 96-well plates (60 min, 25 °C) with ten different concentrations of CDDO and its derivatives, TP-82, enoxolone (5 μM) or DMSO vehicle control in buffer (40 mM Tris-HCl (pH 7.5), 20 mM MgCl2, 0.1 mg/ml BSA and 5% DMSO). The 26S and 20S proteasome were also assayed at 0, 0.75, 1.5, 3, 6, and 12 nM in the absence of CDDO derivatives. […] Assay reagents were used to quench further ATPase activity and generate luminescence signals proportional to the concentration of ADP formed. Background (no enzyme control) luminescence values were subtracted, and resultant values were reported as a percentage of the no drug control (100%). […]

With CC1(C)CC[C@]2(C(=O)O)CC[C@]3(C)[C@H](C(=O)C=C4[C@@]5(C)C=C(C#N)C(=O)C(C)(C)[C@@H]5CC[C@]43C)[C@@H]2C1 [CDDO, 2-cyano-3,12-dioxooleana-1,9(11)-dien-28-oic acid] the “Fold increase in inhibition compared with WT” value was 1.2 and the IC50 (end-point ATPase assay, N = 1, read-out: CDDO IC50) was 11.9 µM.
